# Data published in publication PMC6155665, “Antiplasmodial Activity, Cytotoxicity and Structure-Activity Relationship Study of Cyclopeptide Alkaloids” (Molecules : A Journal of Synthetic Chemistry and Natural …, 2017).
# Like-named read-outs stand apart in the source and are kept apart here.
# Assays:
# P. falciparum strain K1 [1] = assay: In vitro antiplasmodial activity; assay type: cell-based; conditions: Plasmodium falciparum
# Protocol: (§1) The antiplasmodial and cytotoxic activity determinations of all cyclopeptide alkaloids were performed as reported before. Each experiment was performed at least in triplicate and the average IC50 values were calculated.
# [2] = Cytotoxicity against MRC-5 cells; conditions: human
# Protocol: as §1
# P. falciparum strain K1 [3] = test system: P. falciparum strain K1; parameters: method as in PMID 27351950, PMID 27933893; conditions: previously reported by the same group, same test conditions; cited from earlier work
# MRC-5 cells = conditions: cited from earlier work
# Plasmodium falciparum = conditions: cited from earlier work; for IC50: read-out: antiplasmodial IC50
# [4] = strain K1, average of at least triplicate, read-out: P. falciparum K1 IC50
# [5] = read-out: MRC-5 IC50, cytotoxicity, previously reported by the same group
# [6] = corresponding to the μg/mL values, Suksamrarn et al.
compound,measurement,setting,value
"CC(C)C[C@@H]1NC(=O)[C@@H](NC(=O)[C@H](C(C)O)N(C)C)[C@H](c2ccccc2)Oc2ccc(cc2)/C=C\NC1=O (stereo partly shown) [Compound 4, Nummularine-E]",IC50,P. falciparum strain K1 [1]; [4],> 64 µM
same,IC50,[2]; MRC-5 cells,> 64 µM
"CCC(C)[C@@H](C(=O)N[C@H](C(=O)N[C@@H]1C(=O)N[C@@H](Cc2c[nH]c3ccccc23)C(=O)NCC(=O)c2ccc(cc2)OC1(C)C)C(C)C)[N+](C)(C)[O-] (stereo partly shown) [Compound 13, Hymenocardine N-oxide]",IC50,P. falciparum strain K1 [3],12.2 ± 6.6 µM
same,IC50,MRC-5 cells,> 64 µM
nummularine-B methiodide,antiplasmodial activity against Plasmodium falciparum (in words),Plasmodium falciparum; Panseeta et al.,not
"CCC(C)[C@@H]1NC(=O)[C@@H]2[C@H](CCN2C(=O)[C@@H](NC(=O)[C@H](Cc2ccccc2)N(C)C)C(C)CC)Oc2ccc(cc2)/C=C\NC1=O (stereo partly shown) [Compound 5, Amphibine-D]",IC50,P. falciparum strain K1 [1]; [4],8.9 ± 1.5 µM
same,IC50,[2],> 64 µM
ziziphine-P,antiplasmodial activity (in words),Plasmodium falciparum; Suksamrarn et al.,not active
"CCC(C)[C@H](NC(=O)[C@H](C)NC)C(=O)N1CC[C@@H]2Oc3ccc(OC)c(c3)/C=C\NC(=O)[C@H](C(C)C)NC(=O)[C@H]21 (stereo partly shown) [Compound 7, Jubanine-G]",IC50,P. falciparum strain K1 [1]; [4],4.7 ± 2.4 µM
same,IC50,[2],> 64 µM
"CCC(C)[C@@H]1NC(=O)[C@@H]2[C@H](CCN2C(=O)[C@H](Cc2c[nH]c3ccccc23)N(C)C)Oc2ccc(O)c(c2)/C=C\NC1=O (stereo partly shown) [Compound 16, O-desmethylnummularine-R]",IC50,P. falciparum strain K1 [3],7.1 ± 1.6 µM
same,IC50,MRC-5 cells; [5],> 64 µM
"O=C1N/C=C\c2ccc(cc2)O[C@@H](c2ccccc2)[C@H](NC(=O)[C@@H]2CCCN2C(=O)/C=C/c2ccccc2)C(=O)N[C@H]1C(O)c1ccccc1 (stereo partly shown) [Compound 19, Oxyphylline-F]",IC50,P. falciparum strain K1 [3],7.4 ± 3 µM
same,IC50,MRC-5 cells; [5],31.2 ± 1.4 µM
"CN[C@@H](C)C(=O)N[C@H](C(=O)N1CC[C@@H]2Oc3ccc(OC)c(c3)/C=C\NC(=O)[C@H](C(C)C)NC(=O)[C@H]21)C(C)C [Compound 6, Jubanine-F]",IC50,P. falciparum strain K1 [1]; [4],12.8 ± 2.9 µM
same,IC50,[2],> 64 µM
"CCC(C)[C@@H](C(=O)N[C@H](C(=O)N[C@@H]1C(=O)N[C@@H](Cc2c[nH]c3ccccc23)C(=O)NCC(=O)c2ccc(cc2)OC1(C)C)C(C)C)N(C)C (stereo partly shown) [Compound 11, Hymenocardine]",IC50,P. falciparum strain K1 [3],16.4 ± 6.8 µM
same,IC50,MRC-5 cells,51.1 ± 17.2 µM
mauritine-L,antiplasmodial activity against Plasmodium falciparum (in words),Plasmodium falciparum; Panseeta et al.,not
"CCN(CC)CCCC(C)Nc1ccnc2cc(Cl)ccc12 (stereo not shown) [Chloroquine, reference compound]",IC50,"P. falciparum strain K1 [1]; K1, read-out: P. falciparum K1 IC50",0.15 µM
CCC(C)[C@H](C(=O)N[C@@H](CC(C)C)C(=O)N1CC[C@@H]2Oc3ccc(OC)c(c3)/C=C\NC(=O)[C@@H]3CCCN3C(=O)[C@H]21)N(C)C (stereo partly shown) [ziziphine-N],antiplasmodial IC50,Plasmodium falciparum; Suksamrarn et al.,3.92 µg/mL
same,IC50,Plasmodium falciparum; [6],6.4 µM
"CC[C@H](C)[C@@H]1NC(=O)[C@@H](NC(=O)[C@H](CC(C)C)N(C)C)[C@H](C(C)C)Oc2ccc(cc2)/C=C\NC1=O [Compound 9, Adouetine-X]",IC50,P. falciparum strain K1 [1]; [4],7.5 ± 1.8 µM
same,IC50,[2]; MRC-5 cells,19.1 ± 11.9 µM
"CCC(C)[C@@H]1NC(=O)[C@@H]2[C@H](CCN2C(=O)[C@H](Cc2c[nH]c3ccccc23)N(C)C)Oc2ccc(OC)c(c2)/C=C\NC1=O (stereo partly shown) [Compound 15, Nummularine-R]",IC50,P. falciparum strain K1 [3],3.2 ± 2.6 µM
same,IC50,MRC-5 cells; [5],30.6 ± 4 µM
"CCC(C)[C@@H](C(=O)N[C@H](C(=O)N[C@@H]1C(=O)N[C@@H](Cc2c[nH]c3ccccc23)C(=O)NCC(O)c2ccc(cc2)OC1(C)C)C(C)C)N(C)C (stereo partly shown) [Compound 12, Hymenocardinol]",IC50,P. falciparum strain K1 [3],17.5 ± 8.7 µM
same,IC50,MRC-5 cells,> 64 µM
"CCC(C)[C@@H]1NC(=O)[C@@H]2[C@H](CCN2C(=O)[C@@H](NC)C(C)CC)Oc2ccc(cc2)/C=C\NC1=O (stereo partly shown) [Compound 1, Nummularine-U]",IC50,P. falciparum strain K1 [1]; [4],23 ± 8.5 µM
same,IC50,[2]; MRC-5 cells,> 64 µM
"CCC(C)[C@@H]1NC(=O)[C@@H]2[C@H](CCN2C(=O)[C@H](Cc2c[nH]c3ccccc23)N(C)C)Oc2ccc(cc2)/C=C\NC1=O (stereo partly shown) [Compound 17, Hemsine-A]",IC50,P. falciparum strain K1 [3],13.6 ± 9.3 µM
same,IC50,MRC-5 cells; [5],> 64 µM
"CCC(C)[C@@H](C(=O)N[C@@H]1C(=O)N[C@@H](CC(C)C)C(=O)N/C=C\c2ccc(cc2)O[C@H]1C(C)C)N(C)C (stereo partly shown) [Compound 10, Frangulanine]",IC50,P. falciparum strain K1 [1]; [4],14.9 ± 5.2 µM
same,IC50,[2]; MRC-5 cells,30.6 ± 6.5 µM
"CN[C@@H](C)C(=O)N[C@H](C(=O)N1CC[C@@H]2Oc3ccc(OC)c(c3)/C=C\NC(=O)[C@H](Cc3ccccc3)NC(=O)[C@H]21)C(C)C [Compound 8, Nummularine-B]",IC50,P. falciparum strain K1 [1]; [4],3.6 ± 1.3 µM
same,IC50,[2],> 64 µM
same,antiplasmodial activity against Plasmodium falciparum (in words),Plasmodium falciparum; Panseeta et al.,moderately active
same,IC50,Plasmodium falciparum; Panseeta et al.,10.3 µM
CCC(C)[C@@H](NC)C(=O)N[C@@H](CC(C)C)C(=O)N1CC[C@@H]2Oc3ccc(OC)c(c3)/C=C\NC(=O)[C@@H]3CCCN3C(=O)[C@H]21 (stereo partly shown) [ziziphine-O],antiplasmodial activity (in words),Plasmodium falciparum; Suksamrarn et al.,not active
"CCC(C)[C@H](NC(=O)[C@H](C(C)CC)N(C)C)C(=O)N[C@@H]1C(=O)N[C@@H](Cc2c[nH]cn2)C(=O)NCC(=O)c2ccc(cc2)O[C@H]1C(C)C (stereo partly shown) [Compound 14, Hymenocardine-H]",IC50,P. falciparum strain K1 [3],27.9 ± 16.5 µM
same,IC50,MRC-5 cells,> 64 µM
CCC(C)[C@H](C(=O)N[C@H](C(=O)N1CC[C@@H]2Oc3ccc(OC)c(c3)/C=C\NC(=O)[C@@H]3CCCN3C(=O)[C@H]21)C(C)C)N(C)C (stereo partly shown) [ziziphine-Q],antiplasmodial IC50,Plasmodium falciparum; Suksamrarn et al.,3.5 µg/mL
same,IC50,Plasmodium falciparum; [6],5.9 µM
"CCC(C)[C@@H]1NC(=O)[C@@H]2[C@H](CCN2C(=O)[C@H](C(C)CC)N(C)C)Oc2ccc(cc2)/C=C\NC1=O (stereo partly shown) [Compound 18, Ramosine-A]",IC50,P. falciparum strain K1 [3],> 32 µM
same,IC50,MRC-5 cells; [5],> 64 µM
"CCC(C)[C@@H]1NC(=O)[C@@H]2[C@H](CCN2C(=O)[C@@H](NC(=O)[C@H](Cc2ccccc2)N(C)C)C(C)CC)Oc2ccc(O)c(c2)/C=C\NC1=O (stereo partly shown) [Compound 3, Spinanine-B]",IC50,P. falciparum strain K1 [1]; [4],2.1 ± 0.3 µM
same,IC50,[2],> 64 µM
"CN[C@@H](C)C(=O)N[C@H](C(=O)N1CC[C@@H]2Oc3ccc(cc3)/C=C\NC(=O)[C@H](Cc3ccccc3)NC(=O)[C@H]21)C(C)C [Compound 2, Mauritine-F]",IC50,P. falciparum strain K1 [1]; [4],34.2 ± 9.14 µM
same,IC50,[2],> 64 µM
